In brackets after ≈: the same amount, converted by molar mass. Like-named read-outs stand apart in the source and are kept apart here. Where a SMILES comes first, the peptide text is derived from it. Where no end group is shown, it is not given here.
What was measured:
ClpXP [1] = molecular target: T1, ClpXP (Escherichia coli, UniProt P0A6G7+P0A6H1); test: biochemical; type: biochemical, E. coli; settings: for Ki: purified peptides and E. coli proteins, GFP-tag
Method: In vitro proteolysis assays: Proteolysis of GFP-tag was performed using a continuous fluorescence assay essentially as previously described (Levchenko et al. 2000, Science 289: 2354-2356). Briefly, loss of GFP fluorescence was monitored at 507 nm after excitation at 395 nm at 30° C. using a Hitachi F-2000 Fluorescence Spectrophotometer in buffer R (25 mM HEPES-KOH (pH 7.6), 5 mM MgCl2, 50 mM KCl, 0.032% NP-40, 10% glycerol, and an ATP regeneration system containing 4 mM ATP (pH 7), 16 mM creatine phosphate and 0.32 mg/ml creatine kinase). Typically, reactions contained […], 0.3 μM ClpP14, and equimolar concentrations (0.2 μM-2.0 μM) GFP-tag and SspB. Degradation of GFP-tag protein was confirmed by SDS-PAGE assays. To examine inhibition of GFP-tag proteolysis, peptides were incubated with ClpXP in reaction buffer for 5 min prior to the addition of GFP-tag. Plots of fluorescence versus time were fit with a single exponential function to determine the initial rate of proteolysis. Kinetic parameters were estimated using Eadie-Hofstee plots.
Proteolysis of GFP-tag in the presence of ClpXP and SspB was monitored by loss of GFP fluorescence in a continuous fluorometric assay. In the absence of cyclic peptide, GFP-tag was degraded with kinetic parameters kcat=[…], KM=0.74±0.04 μM. […] Likewise, no degradation was observed when ClpX or ClpP were omitted from the reaction.

ClpXP [2] = molecular target: T1, ClpXP; test: ClpXP degradation of λO protein (Example 1); type: biochemical, E. coli; settings: concentrations near or 10-fold above the KI for GFP-tag
Method: The differing effects of SspB on inhibition indicate that inhibitors for two different steps in the ClpXP degradation pathway were obtained from the genetic screen. To confirm the different specificities of these two inhibitors, the effects on ClpXP degradation of a substrate unrelated to tmRNA tagged proteins was assayed. Because ClpXP can recognize at least 5 different protein sequences as substrate determinants, it has been proposed that there are several substrate binding sites on the protease. Inhibitors that block one site of interaction are expected to affect degradation of only the substrates that bind at that site. Conversely, inhibitors that block catalysis or obstruct a binding site required by all substrates should affect degradation of any ClpXP substrate.

C. crescentus [3] = type: cell-based, Caulobacter crescentus
Method: Antibacterial activity: The peptides recovered from the selection were tested for antibacterial activity by incubating a 1:1,000 diluted saturated culture with the peptide overnight at room temperature. For each peptide a series of concentrations were tested. The mix was then plated, and the colonies were counted after a period incubation at 30° for C. crescentus or 37° C. for B. subtilis. For C. crescentus, PYE liquid media were incubated overnight at 30° C. at 250 rpm, and PYE plates were incubated for 3 days at 30° C. For B. subtilis, LB liquid media and plates were incubated overnight at 37° C. […]
Antibacterial activity of cyclic peptide inhibitors: Because ClpXP is essential in C. crescentus, we examined whether the inhibitory peptides have any effect when added exogenously to growing cultures. […] ClpXP is not essential in Bacillus subtilis, but mutants lacking ClpXP activity have growth and sporulation defects. […] No killing of E. coli or the related γ-proteobacteria Shigella flexneri and Vibrio cholera was observed. It remains to be determined if the selected cyclic peptides are effective against pathogenic bacterial that require the tmRNA-ClpXP pathway.

ClpXP [4] = molecular target: T1, ClpXP; test: ClpXP degradation of GFP-tag in the absence of SspB (Examples 1-2); type: biochemical, E. coli; settings: for Ki: GFP-tag degradation by ClpXP
Method: (§1) ClpXP Proteolysis: PD buffer contained 25 mM HEPES-KOH (pH 7.6), 5 mM KCl, 5 mM MgCl2, 0.032% NP-40, 5 mM ATP, and 10% glycerol. The ATP regenerating system consisted of 8 mM creatine phosphate and 0.16 mg/ml creatine kinase. Inhibition experiments were performed using a Hitachi F-2000 Fluorescence Spectrophotometer. The rate of GFP-ssrA degradation was monitored at 30° C. for 5 minutes by the loss of fluorescence (excitation 488 nm; emission 507 nm). Competition experiments with increasing concentrations of peptide were performed using GFP-ssrA (0.2 μM), ClpX6 (0.3 ArM), ClpP14 (0.8 μM), and SspB2 (0.3 μM) in PD buffer plus 200 mM KCl and ATP regenerating system. Curve fitting for the competitive inhibition assays were performed using the Scientist program (MicroMath Scientific Software, Inc.).
A priori, there are several steps in the degradation pathway that could be inhibited by the selected cyclic peptides: binding of the substrate-SspB complex to ClpXP, ATPase activity of ClpX, and hydrolysis of the peptide bond by ClpP. Molecules that block the binding of substrate to SspB should not be inhibitors of proteolysis by ClpXP, because ClpXP will degrade tmRNA-tagged substrates in the absence of SspB. To determine if the inhibitors act through SspB, the kinetic assays were repeated in the absence of this proteolytic adaptor.

ClpXP [5] = molecular target: T1, ClpXP; test: ClpXP degradation of GFP-tag in the presence of SspB, continuous fluorimetric assay (Examples 1-2); type: biochemical, E. coli; settings: GFP-tag degradation by ClpXP
Method: as §1
Characterization of ClpXP inhibitors in vitro: Two of the selected cyclic peptides were synthesized in vitro to examine their effects on enzymatic assays. Peptides with the sequence SGWRVQGPL (SEQ ID NO: 1) and SGSKGVLPL (SEQ ID NO: 2) were chemically synthesized in the linear form, circularized, and purified by HPLC. The effects of these peptides on the activity of purified ClpXP were determined in vitro using a continuous fluorimetric assay. GFP-tag, SspB, ClpX and ClpP were each purified from over-expressing strains of E. coli, and degradation of GFP-tag was monitored by loss of fluorescence. In reactions containing all components, GFP-tag was degraded with kinetic parameters kcat=1.79±0.08 min−1, KM=0.74±0.04, similar to the previously published values of 1.44 min^−1 and 0.96 μM. […] For both cyclic peptides, inhibition of ClpXP was reversible, as no inhibition was observed when ClpXP was incubated with peptide at concentrations above the Kr, and dialyzed to remove unbound peptide before addition of enzyme to the reaction. The linear versions of SGSKGVLPL (SEQ ID NO: 2) and SGWRVQGPL (SEQ ID NO: 1) had Kb, values >1 mM (Table 4), so the cyclic architecture is likely to be important for inhibition.

C. crescentus [6] = type: cell-based, Caulobacter crescentus; settings: 14 h
Method: Antibacterial activity assays: To measure the effects of peptides on bacterial growth, cultures of C. crescentus were diluted to OD600=0.001, peptide was added at various concentrations, the cultures were incubated at 30° C. for 14 h, and the MIC was determined as the lowest concentration of peptide that prevented growth. To determine the MBC, each culture was diluted 1:100 in PYE and 10 μl of the diluted culture was spread onto PYE agar plates, incubated at 30° C. overnight, and the number of colonies on each plate was counted. The MBC was assigned as the concentration of peptide that reduced the number of colonies by 99.9% compared to cultures with no inhibitor.

GFP-tag reporter = GFP-tag reporter fluorescence in cells expressing SGW+5 SICLOPPS clones, epifluorescence microscopy (Example 1); type: cell-based, E. coli
Excerpt: Clonal populations are obtained by spotting the cells with high fluorescence on agar plates, and cells from each colony are screened by epi-fluorescence microscopy for fluorescence intensity. SICLOPPS plasmids from clones that pass the microscopy screen were isolated and sequenced to identify the cyclic peptide that is produced in that clone.
A SICLOPPS library was constructed in which the cyclic peptide contains three constant amino acids, SGW, followed by five random amino acids encoded by NNS codons. This library was introduced into cells containing the GFP-tag reporter, and the expression of the reporter and cyclic peptide were induced. Approximately 690,000 cells were sorted by FACS and the brightest 50 were isolated. These 50 clones were grown individually in fresh medium, the expression of reporter and cyclic peptide was induced, and the culture was observed by epifluorescence microscopy. Two clones produced cultures in which nearly 100% of the cells were highly fluorescent.

[7] = tested on: GFP-tag degradation by ClpXP; test: In vivo screen: GFP-tag reporter fluorescence in E. coli producing the cyclic peptide from a SICLOPPS plasmid, epifluorescence microscopy (Example 3); type: cell-based
Method: Screen for inhibitors of the tmRNA pathway: E. coli BW7786 cells containing the GFP-tag reporter and the SICLOPPS library were grown in LB broth with 30 μg/ml chloramphenicol, 100 μg/ml ampicillin, and 0.0002% arabinose at 37° C. to OD600=0.3. IPTG was added to a final concentration of 1 mM, and the culture was grown for 3 hours. Cells were sorted by fluorescence activated cell sorting (FACS) using a Beckman Coulter Elite cell sorter with Autoclone to isolate cells with GFP fluorescence, and selected cells were deposited on agar plates for clonal growth. Cells from each colony were grown in liquid culture as described above and examined by epifluorescence microscopy. The fluorescence intensity and the number of cells with fluorescence above background were scored using ImagePro software (MediaCybernetics). SICLOPPS plasmid DNA was prepared from selected clones and the region encoding the cyclic peptide was sequenced. Peptide sequences were obtained from conceptual translation of the DNA sequences.
Approximately 0.014% of the population had fluorescence over the background level, and 96 of these cells were isolated for clonal growth and characterization. To eliminate any clones that resulted from sorting errors or spurious accumulation of GFP, cells from each colony were cultured and examined by epifluorescence microscopy.

[8] = SspB present, read-out: KI value +SspB

T1 sequence (P0A6G7 15-207): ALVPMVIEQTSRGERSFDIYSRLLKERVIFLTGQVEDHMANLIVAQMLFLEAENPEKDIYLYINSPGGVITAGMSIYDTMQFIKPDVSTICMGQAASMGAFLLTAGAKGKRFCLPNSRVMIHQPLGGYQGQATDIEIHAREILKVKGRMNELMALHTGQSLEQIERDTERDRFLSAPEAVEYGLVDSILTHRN
T1 sequence (P0A6H1 whole entry): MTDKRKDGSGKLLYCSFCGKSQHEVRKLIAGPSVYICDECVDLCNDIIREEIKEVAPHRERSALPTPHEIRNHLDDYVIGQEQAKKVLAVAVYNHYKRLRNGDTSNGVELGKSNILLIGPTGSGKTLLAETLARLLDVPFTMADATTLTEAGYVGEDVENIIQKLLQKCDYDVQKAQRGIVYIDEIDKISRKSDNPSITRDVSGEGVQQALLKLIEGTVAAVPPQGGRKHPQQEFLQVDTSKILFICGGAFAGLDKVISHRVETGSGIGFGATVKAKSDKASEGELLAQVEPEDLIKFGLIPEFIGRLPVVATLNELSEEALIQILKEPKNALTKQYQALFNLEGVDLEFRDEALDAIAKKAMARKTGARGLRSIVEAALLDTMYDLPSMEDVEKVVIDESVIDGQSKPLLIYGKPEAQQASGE

| Molecule | MIC (C. crescentus [3]) [µM] | Ki (ClpXP [4]; no SspB) [µM] | Ki (ClpXP [1]; SspB present) [µM] | MBC (C. crescentus [6]) [µM] | MIC (C. crescentus [6]) [µM] | other results |
| --- | --- | --- | --- | --- | --- | --- |
| CC(C)C[C@@H]1NC(=O)[C@@H]2CCCN2C(=O)CNC(=O)[C@H](CCC(N)=O)NC(=O)[C@H](C(C)C)NC(=O)[C@H](CCCNC(=N)N)NC(=O)[C@H](Cc2c[nH]c3ccccc23)NC(=O)CNC(=O)[C@H](CO)NC1=O [ICP2, SGWRVQGPL] (HELM PEPTIDE1{G.P.L.S.G.W.R.V.Q}$PEPTIDE1,PEPTIDE1,1:R1-9:R2$$$V2.0) | 62.2 (≈ 61 µg/mL) | > 1000 |  |  |  | mode of inhibition of GFP-tag degradation (ClpXP [1]; SspB present): competitive inhibitors; inhibition of ClpXP proteolysis of GFP-tag in vitro (ClpXP [1]; at the concentrations tested): inhibited; effect on degradation of λO protein by ClpXP (ClpXP [2]): no effect; inhibition of GFP-tag degradation by ClpXP in the absence of SspB (ClpXP [4]; no SspB): did not inhibit; KI in the absence of SspB, fold higher (ClpXP [4]; no SspB versus +SspB): at least 10 fold |
| SGWRVQGPL [linICP2, SGWRVQGPL] | >250 |  |  |  |  |  |
| H-SGSKGVLPL-OH [linICP1, SGSKGVLPL] | >250 | > 1500 |  |  |  | inhibition of ClpXP in vitro at concentrations up to 1 mM (ClpXP [1]): little inhibition; Ki (ClpXP [5]; [8]): > 1500 µM; Ki (ClpXP [5]; read-out: Kb, values (KI) of linear versions): > 1000 µM |
| SGGRGGRPL (also: cyclic, mode of cyclisation not given here) [IXP5] |  |  |  |  |  | inhibition of ClpXP proteolysis of GFP-tag in vitro (ClpXP [1]): did not inhibit |
| CSCC[C@@H]1NC(=O)[C@H](Cc2c[nH]c3ccccc23)NC(=O)[C@H](CCCCN)NC(=O)[C@H](Cc2ccc(O)cc2)NC(=O)[C@@H]2CCCN2C(=O)[C@H](Cc2c[nH]c3ccccc23)NC(=O)CNC(=O)[C@H](CO)NC1=O [Con62, SGWPYKWM, reference compound] (HELM PEPTIDE1{G.W.P.Y.K.W.M.S}$PEPTIDE1,PEPTIDE1,1:R1-8:R2$$$V2.0) | >250 | > 1000 | > 1000 | >600 | >600 | Ki (ClpXP [5]; [8]): > 1000 µM |
| H-SGWYGRRH-OH [linear IXP1, SGWYGRRH] |  |  | > 1000 | 481 ± 38 | 385 ± 28 | inhibition of ClpXP in vitro at concentrations up to 1 mM (ClpXP [1]): little inhibition |
| CSCC[C@@H]1NC(=O)CNC(=O)[C@H](CCCNC(=N)N)NC(=O)[C@H](CCCNC(=N)N)NC(=O)[C@H](Cc2c[nH]cn2)NC(=O)[C@H](Cc2c[nH]c3ccccc23)NC(=O)CNC(=O)[C@H](CO)NC1=O [IXP2, SGWHRRGM] (HELM PEPTIDE1{G.M.S.G.W.H.R.R}$PEPTIDE1,PEPTIDE1,1:R1-8:R2$$$V2.0) |  |  | > 1000 | >600 | 430 ± 40 (≈ 416 µg/mL) | inhibition of ClpXP proteolysis of GFP-tag in vitro (ClpXP [1]; at the concentrations tested): did not inhibit; average fluorescent intensity relative to cultures expressing ICP1 or ICP2 (GFP-tag reporter): more than twice; cells highly fluorescent (GFP-tag reporter; induced culture): ~100%; % fluorescent cells ([7]; cells with fluorescence at least 0.5 times that of ΔclpX cells producing GFP-tag): 30-40%; GFP-tag fluorescence / inhibition in vivo ([7]; compared with ΔclpX strain): indistinguishable from the ΔclpX strain |
| SGWHRRGM [linear IXP2, SGWHRRGM] |  |  |  | 376 ± 37 | 304 ± 27 |  |

— US10597735B2, “Antibacterial and plasmid elimination agents” (priority 2006, dated 2020)
